Laboratory results: patent US9440930B2, “Substituted bicyclic dihydropyrimidinones and their use as inhibitors of neutrophil elastase activity” (Boehringer Ingelheim International GmbH, priority 2014, dated 2016)
Values after ≈ are worked out from the molar mass of the structure shown.

Tests used:
[1] = Metabolic stability with human liver microsomes; assay type: in vitro ADME; settings: pooled human liver microsomes, pH 7.6; human liver microsomes 1 mg/ml, 1 μM compound, 37° C., NADPH; read-out: t1/2 INVITRO
Aqueous solubility = assay type: physicochemical; settings: McIlvaine buffer pH 6.8 containing 2.5% DMSO, kinetic from dmso stock, McIlvaine buffer pH 6.8, 2.5% DMSO, 24 h shaking
Experimental: Assay for Determination of Aqueous Solubility
Starting from a 10 min DMSO stock solution, aliquots are diluted with acetonitrile/water (1/1) and McIlvaine buffer pH 6.8, respectively. After 24 h of shaking, the solutions or suspensions are filtered and analyzed by LC-UV. The amount dissolved in buffer is compared to the amount dissolved in the acetonitrile/water (1/1) solution. Solubility is measured from 0.001 to 0.125 mg/ml at a DMSO concentration of 2.5%. If more than 90% of the compound is dissolved in buffer, the value is marked with “>”.

[2] = target: T1, Human neutrophil elastase (Homo sapiens, UniProt P08246); experiment: Human Neutrophil Elastase Assay; assay type: biochemical; settings: substrate MeOSuc-Ala-Ala-Pro-Val-AMC 250 μM, pH 7.5, room temperature
T1 construct: purchased Calbiochem 324681
T1 sequence (P08246 30-247 limits assumed): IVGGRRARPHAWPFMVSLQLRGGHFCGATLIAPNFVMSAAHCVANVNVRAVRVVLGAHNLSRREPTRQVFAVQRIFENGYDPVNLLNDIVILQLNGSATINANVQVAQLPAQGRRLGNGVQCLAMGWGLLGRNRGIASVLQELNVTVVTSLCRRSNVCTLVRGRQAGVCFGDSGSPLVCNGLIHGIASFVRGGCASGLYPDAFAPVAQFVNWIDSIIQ
Source text: Human Neutrophil Elastase Assay

[3] = Drug transport across human Caco-2 cells; assay type: in vitro ADME; settings: pH 7.2, 37° C.; for Papp A→B at 10 µM: apical-to-basal, read-out: PEAB; for Papp B→A at 10 µM: basal-to-apical, read-out: PEBA
Source text: Assay for Determination of Drug Transport Across Human Caco-2 Cells
The assay provides information on the potential of a compound to pass the cell membrane, on the extent of oral absorption as well as on whether the compound is actively transported by uptake and/or efflux transporters. For the measurement of permeability across polarized, confluent human cancer colon carcinoma cells 2 (Caco-2) cell monolayers grown on permeable filter supports are used as the in vitro absorption model.
Apparent permeability coefficients (PE) of the compounds across the Caco-2 monolayers are measured (pH 7.2, 37° C.) in apical-to-basal (AB) (absorptive) and basal-to-apical (BA) (secretory) transport direction. AB permeability (PEAB) represents drug absorption from the intestine into the blood and BA permeability (PEBA) drug secretion from the blood back into the intestine via both passive permeability as well as active transport mechanisms mediated by efflux and uptake transporters that are expressed on the Caco-2 cells. The compounds are assigned to permeability/absorption classes by comparison of the AB permeabilities with the AB permeabilities of reference compounds with known in vitro permeability and oral absorption in the human. Identical or similar permeabilities in both transport directions indicate passive permeation, vectorial permeability points to additional active transport mechanisms. […] Active transport is concentration-dependently saturable.
Caco-2 cells (1-2*10^5 cells/cm^2 area) are seeded on filter inserts (Costar transwell polycarbonate or PET filters, 0.4 μm pore size) and cultured (DMEM) for 10 to 25 days. Compounds are dissolved in appropriate solvent (like DMSO, 1-20 min stock solutions). Stock solutions are diluted with HTP-4 buffer (128.13 min NaCl, 5.36 min KCl, 1 mM MgSO4, 1.8 min CaCl2, 4.17 min NaHCO3, 1.19 min Na2HPO4×7H2O, 0.41 mM NaH2PO4×H2O, 15 min HEPES, 20 min glucose, pH 7.2) to prepare the transport solutions (typically 10 μM compound, final DMSO<=0.5%). The transport solution (TL) is applied to the apical or basolateral donor side for measuring A-B or B-A permeability (3 filter replicates), respectively. The receiver side contains HTP-4 buffer supplemented with 2% BSA. Samples are collected at the start and end of experiment from the donor and at various time intervals for up to 2 hours also from the receiver side for concentration measurement by LC-MS/MS or scintillation counting. Sampled receiver volumes are replaced with fresh receiver solution.

[4] = target: T2, neutrophil elastase in human plasma (Homo sapiens, UniProt P08246); experiment: Neutrophil elastase inhibitory activity in human plasma; assay type: biochemical; settings: zymosan-stimulated human plasma, substrate MeOSuc-Ala-Ala-Pro-Val-AMC 250 μM
T2 construct: The stimulated blood is centrifuged to generate the neutrophil elastase enriched plasma; from tissue; host or cells: plasma from zymosan-stimulated citrated whole blood of healthy human donors
T2 sequence (P08246 30-267): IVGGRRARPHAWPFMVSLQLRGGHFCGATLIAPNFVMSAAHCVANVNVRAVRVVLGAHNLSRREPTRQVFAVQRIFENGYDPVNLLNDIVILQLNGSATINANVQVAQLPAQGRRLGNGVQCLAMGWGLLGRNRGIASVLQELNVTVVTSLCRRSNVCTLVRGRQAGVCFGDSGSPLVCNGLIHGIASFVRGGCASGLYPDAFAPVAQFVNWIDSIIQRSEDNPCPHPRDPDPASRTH
Experimental: Assay for the Determination of Neutrophil Elastase Inhibitory Activity in Human Plasma
Citrated blood from human healthy donors is mixed with zymosan suspension and incubated at room temperature. This leads to the stimulation of neutrophils and the release of neutrophil elastase into the plasma. The stimulated blood is centrifuged to generate the neutrophil elastase enriched plasma.
• A single 45 ml blood sample is taken into a 50 ml tube containing citrate (3.13%, 5 mL) and the tube is gently inverted 4 times. • Immediately after blood sampling, zymosan working solution (5 mL) is added. • After the addition of zymosan working solution, the tubes are capped, mixed gently and incubated at 22° C. for 15 min on a shaker at 20 rpm. • Make 10 ml aliquots after the incubation time. • Centrifuge the 15 ml tubes at 800 g for 15 min at 4° C. in a Jouan centrifuge. • Harvest the plasma and make 1-5 ml aliquots. • Store the plasma at −80° C.
A dose response curve is generated to calculate the EC50 of the inhibitor. The analysis of the data is performed by the calculation of the percentage of fluorescence in the presence of the test compound compared to the fluorescence of the vehicle control after subtracting the background fluorescence: An inhibitor of the neutrophil elastase enzyme will give values between 100% control (no inhibition) and 0% control (complete inhibition).

SMILES | half-life at 1 μM [1] | solubility at 24 h (Aqueous solubility) | IC50 [2] | Papp A→B at 10 µM [3] | Papp B→A at 10 µM [3] | EC50 [4]
CN1C(=O)N(c2cccc(C(F)(F)F)c2)C2=C(C(=O)CCC2)C1c1ccc(C#N)cc1[S+](C)[O-] (single isomer, unassigned) [Example 2.1A, 3-Methanesulfinyl-4-[3-methyl-2,5-dioxo-1-(3-trifluoromethyl-phenyl)-1,2,3,4,5,6,7,8-octahydro-quinazolin-4-yl]-benzonitrile] | 0.967 h | 65 µg/mL (≈ 133 µM) | < 1 nM | 4.1 ×10⁻⁶ cm/s | 58 ×10⁻⁶ cm/s | < 1 nM
CS(=O)(=O)c1cc(C#N)ccc1C1C2=C(CCCC2=O)N(c2cccc(C(F)(F)F)c2)C(=O)N1CC1COC1 (single isomer, unassigned) [Example 5A, 3-Methanesulfonyl-4-[3-oxetan-3-ylmethyl-2,5-dioxo-1-(3-trifluoromethyl-phenyl)-1,2,3,4,5,6,7,8-octahydro-quinazolin-4-yl]-benzonitrile] | 1.23 h |  | 1 nM | 12 ×10⁻⁶ cm/s | 89 ×10⁻⁶ cm/s | 1 nM
CN1C(=O)N(c2cccc(C(F)(F)F)c2)C2=C(C(=O)CCC2)C1c1ccc(C#N)cc1S(=O)(=O)CCO (stereo not shown) [Example 4.3] | 2.17 h | 62 µg/mL (≈ 116 µM) | 1.1 nM | 10 ×10⁻⁶ cm/s | 120 ×10⁻⁶ cm/s | 2 nM
CN1C(=O)N(c2cccc(C(F)(F)F)c2)C2=C(C(=O)CCC2)C1c1ccc(C#N)cc1S(=O)(=O)CCCO (stereo not shown) [Example 4.4] | 1.67 h |  | < 1 nM | 8.4 ×10⁻⁶ cm/s | 110 ×10⁻⁶ cm/s | 2 nM
CS(=O)(=O)c1cc(C#N)ccc1C1C2=C(CCCC2=O)N(c2cccc(C(F)(F)F)c2)C(=O)N1CCO (stereo not shown) [Example 6, 4-[3-(2-Hydroxy-ethyl)-2,5-dioxo-1-(3-trifluoromethyl-phenyl)-1,2,3,4,5,6,7,8-octahydro-quinazolin-4-yl]-3-methanesulfonyl-benzonitrile] | > 2.17 h | 72 µg/mL (≈ 135 µM) | < 1 nM | 3.9 ×10⁻⁶ cm/s | 68 ×10⁻⁶ cm/s | 1 nM
